Source: the supplement of paper PMC13207355

Key:
Settings in all cases: exposure time: 72 h
E57 [1] = patient-derived glioblastoma stem cells of mesenchymal subtype; experiment: surviving fraction (nuclei count normalised to DMSO); higher = more cells surviving (less toxic)
FT3469 [2] = normal neural stem cell line; experiment: as above
E34 [3] = patient-derived glioblastoma stem cells of proneural subtype; experiment: as above
E28 [4] = patient-derived glioblastoma stem cells of classical subtype; experiment: as above
E13 [5] = patient-derived glioblastoma stem cells of classical subtype; experiment: as above
E21 [6] = patient-derived glioblastoma stem cells of mesenchymal subtype; experiment: as above
E31 [7] = patient-derived glioblastoma stem cells of proneural subtype; experiment: as above
E57 [8] = experiment: phenotypic distance (Euclidean, principal components) from DMSO controls (arbitrary units); higher = stronger morphological change
FT3469 [9] = experiment: as above
E34 [10] = experiment: as above
E28 [11] = experiment: as above
E13 [12] = experiment: as above
E21 [13] = experiment: as above
E31 [14] = experiment: as above
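Throughout, for phenotypic distance (Euclidean, principal components) from DMSO controls: cell Painting imaging in 384-well plates, CellProfiler features reduced to at least 20 principal components, Euclidean distance versus same-plate DMSO vehicle wells (0.1% v/v), median over six images per well.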
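Throughout, for surviving fraction (nuclei count normalised to DMSO): nuclei counted by high-content imaging of Hoechst-stained cells in laminin-coated 384-well plates, relative to 0.1% DMSO vehicle wells, with staurosporine as cell-death control.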

O=C(O)c1ccc(-c2c[nH]c3ncc(-c4ccccc4)cc23)cc1C1CCCC1
Settings | phenotypic distance | surviving fraction
E13 [5], 4.11523 nM | – | 0.996
E13 [5], 12.34567901 nM | – | 0.826
E13 [5], 37.037 nM | – | 0.899
E13 [5], 111.1111111 nM | – | 0.825
E13 [5], 333.333 nM | – | 0.72
E13 [5], 1000 nM | – | 0.588
E13 [5], 3000 nM | – | 0.413
E13 [12], 4.11523 nM | 3.86 | –
E13 [12], 12.34567901 nM | 2.38 | –
E13 [12], 37.037 nM | 0.747 | –
E13 [12], 111.1111111 nM | 0.749 | –
E13 [12], 333.333 nM | 1 | –
E13 [12], 1000 nM | 2.77 | –
E13 [12], 3000 nM | 5.39 | –
E21 [6], 4.11523 nM | – | 0.933
E21 [6], 12.34567901 nM | – | 0.832
E21 [6], 37.037 nM | – | 0.918
E21 [6], 111.1111111 nM | – | 0.783
E21 [6], 333.333 nM | – | 0.803
E21 [6], 1000 nM | – | 0.681
E21 [6], 3000 nM | – | 0.52
E21 [13], 4.11523 nM | 0.656 | –
E21 [13], 12.34567901 nM | 0.914 | –
E21 [13], 37.037 nM | 0.757 | –
E21 [13], 111.1111111 nM | 0.832 | –
E21 [13], 333.333 nM | 0.828 | –
E21 [13], 1000 nM | 1.75 | –
E21 [13], 3000 nM | 4.49 | –
E28 [4], 4.11523 nM | – | 0.956
E28 [4], 12.34567901 nM | – | 0.911
E28 [4], 37.037 nM | – | 0.873
E28 [4], 111.1111111 nM | – | 1.01
E28 [4], 333.333 nM | – | 0.807
E28 [4], 1000 nM | – | 0.755
E28 [4], 3000 nM | – | 0.51
E28 [11], 4.11523 nM | 0.635 | –
E28 [11], 12.34567901 nM | 0.785 | –
E28 [11], 37.037 nM | 0.418 | –
E28 [11], 111.1111111 nM | 0.61 | –
E28 [11], 333.333 nM | 0.687 | –
E28 [11], 1000 nM | 1.26 | –
E28 [11], 3000 nM | 2.4 | –
E31 [7], 4.11523 nM | – | 1.04
E31 [7], 12.34567901 nM | – | 1.01
E31 [7], 37.037 nM | – | 0.885
E31 [7], 111.1111111 nM | – | 1.14
E31 [7], 333.333 nM | – | 0.798
E31 [7], 1000 nM | – | 1.04
E31 [7], 3000 nM | – | 0.688
E31 [14], 4.11523 nM | 0.443 | –
E31 [14], 12.34567901 nM | 0.638 | –
E31 [14], 37.037 nM | 0.948 | –
E31 [14], 111.1111111 nM | 0.662 | –
E31 [14], 333.333 nM | 1.08 | –
E31 [14], 1000 nM | 1.15 | –
E31 [14], 3000 nM | 1.91 | –
E34 [3], 4.11523 nM | – | 0.913
E34 [3], 12.34567901 nM | – | 1.06
E34 [3], 37.037 nM | – | 0.86
E34 [3], 111.1111111 nM | – | 0.909
E34 [3], 333.333 nM | – | 0.805
E34 [3], 1000 nM | – | 0.714
E34 [3], 3000 nM | – | 0.527
E34 [10], 4.11523 nM | 1.13 | –
E34 [10], 12.34567901 nM | 0.775 | –
E34 [10], 37.037 nM | 0.829 | –
E34 [10], 111.1111111 nM | 1.03 | –
E34 [10], 333.333 nM | 1.12 | –
E34 [10], 1000 nM | 2.9 | –
E34 [10], 3000 nM | 4.8 | –
E57 [1], 4.11523 nM | – | 0.932
E57 [1], 12.34567901 nM | – | 0.905
E57 [1], 37.037 nM | – | 0.923
E57 [1], 111.1111111 nM | – | 0.916
E57 [1], 333.333 nM | – | 0.835
E57 [1], 1000 nM | – | 0.6
E57 [1], 3000 nM | – | 0.35
E57 [8], 4.11523 nM | 0.657 | –
E57 [8], 12.34567901 nM | 0.719 | –
E57 [8], 37.037 nM | 0.687 | –
E57 [8], 111.1111111 nM | 1.04 | –
E57 [8], 333.333 nM | 0.598 | –
E57 [8], 1000 nM | 1.78 | –
E57 [8], 3000 nM | 4.38 | –
FT3469 [2], 4.11523 nM | – | 0.822
FT3469 [2], 12.34567901 nM | – | 0.943
FT3469 [2], 37.037 nM | – | 0.972
FT3469 [2], 111.1111111 nM | – | 0.987
FT3469 [2], 333.333 nM | – | 0.813
FT3469 [2], 1000 nM | – | 0.996
FT3469 [2], 3000 nM | – | 0.766
FT3469 [9], 4.11523 nM | 0.839 | –
FT3469 [9], 12.34567901 nM | 1.18 | –
FT3469 [9], 37.037 nM | 0.627 | –
FT3469 [9], 111.1111111 nM | 1.11 | –
FT3469 [9], 333.333 nM | 0.969 | –
FT3469 [9], 1000 nM | 1.71 | –
FT3469 [9], 3000 nM | 2.49 | –
